Data published in patent US4956367A, “2-amino-4-morpholino-6-propyl-1,3,5-triazines” (U C B S.A., priority 1988, dated 1990).

How the values were obtained:
Toxicity (Irwin's test) = type: in vivo
Experimental: Progressive doses of the compound to be tested are administered intraperitoneally to groups of three mice until the lethal dose is reached (dose which causes the death of two animals out of three within 48 hours).

[1] = tested on: effects of scopolamine on the band from 6.4 to 9.6 Hz in the EEG; experiment: Inhibition of the effects of scopolamine on the electroencephalogram (EEG); type: in vivo, male albino Sprague-Dawley rats; design: inhibition: dose or concentration left out as unconfirmed; conditions: Rattus norvegicus, ip; read-out: Inhibition (percentage of reduction in the increase in the intensity of the band from 6.4 to 9.6 Hz)
Experimental: Male albino Sprague-Dawley SPF rats (160 to 200 g) are used in this test. When the animals are 3 months old, 5 cortical electrodes are implanted permanently, aseptically and under a general anesthesia: one inert electrode, one left and one right frontal electrode, and one left and one right occipital electrode (P. ETEVENON, loc.cit.). The test is carried out when the animals are about 15 months old. In the meantime, the animals are kept in individual cages. They are given water and food ad libitum and are subjected to a regular daily cycle comprising a period of darkness between 6 o'clock in the evening and 6 o'clock in the morning. At the same time, the animals are progressively acclimatized to the cages of the sound-proof cabin which they will subsequently occupy for recording of the electroencephalograms, as well as to the experimental conditions, by intraperitoneal administration of placebo. The products are administered immediately before the EEG is recorded. The rats are divided into groups of 8 animals and 16 samples of the EEG spectra are recorded over 5 seconds (two EEG spectra per animal). The spectra obtained are then analyzed by computer (rapid Fourier transform), which enables the average of the 16 measurements performed to be determined for each group and the overall intensity of the EEG spectrum and the distribution of this intensity (in %) in the various frequency bands to be deduced for each animal. This operation (recording of the spectra) is repeated 9 times (total

SMILES | Lethal dose (death of two animals out of three within 48 hours) (Toxicity (Irwin's test); mice, intraperitoneal) | inhibition [1] | Lethal dose (death of two animals out of three within 48 hours) (Toxicity (Irwin's test); mouse, in vivo, ip)
CCCc1nc(NC(C)=O)nc(N2CCOCC2)n1 | 905 mg/kg |  | 
CCCc1nc(N2CCOCC2)nc(N(C)C(C)=O)n1 | 947 mg/kg |  | 
CCCc1nc(NCCO)nc(N2CCOCC2)n1 [Compound 1, 2-[(4-morpholino-6-propyl-1,3,5-triazin-2-yl)amino]-ethanol] | 802 mg/kg | 52% | 
CCCc1nc(NO)nc(N2CCOCC2)n1 [Compound 2, 2-(hydroxyamino)-4-morpholino-6-propyl-1,3,5-triazine] | 718 mg/kg |  | 
CCCc1nc(NCCCO)nc(N2CCOCC2)n1 [Compound 3] | 844 mg/kg |  | 
CCCc1nc(NCCCCO)nc(N2CCOCC2)n1 [Compound 4] | 886 mg/kg |  | 
CCCc1nc(NCC(C)O)nc(N2CCOCC2)n1 (centres unmarked) [Compound 5] | 563 mg/kg |  | 
CCCc1nc(NCC(O)CC)nc(N2CCOCC2)n1 (centres unmarked) [Compound 6] | 886 mg/kg |  | 
CCCc1nc(NC(CC)CO)nc(N2CCOCC2)n1 (centres unmarked) [Compound 7] |  | 50% | 886 mg/kg
CCCc1nc(NC(C)(C)CO)nc(N2CCOCC2)n1 [Compound 8] | 886 mg/kg |  | 
CCCc1nc(N(C)CCO)nc(N2CCOCC2)n1 [Compound 9] |  | 53.3% | 844 mg/kg
CCCc1nc(NCCOC)nc(N2CCOCC2)n1 [Compound 10, 2-[(2-methoxyethyl)amino]-4-morpholino-6-propyl-1,3,5-triazine] | 844 mg/kg |  | 
CCCc1nc(NCC(O)CO)nc(N2CCOCC2)n1 (centres unmarked) [Compound 11] | 892 mg/kg |  | 
CCCc1nc(NC(CO)(CO)CO)nc(N2CCOCC2)n1 [Compound 12] | 982 mg/kg |  | 
CCCc1nc(NC(C)(CO)CO)nc(N2CCOCC2)n1 [Compound 13] | 934 mg/kg |  | 
CCCc1nc(N2CCOCC2)nc(N(CCO)Cc2ccccc2)n1 [Compound 14] | > 1073 mg/kg |  | 
CCCc1nc(NC(CO)C(O)c2ccccc2)nc(N2CCOCC2)n1 (centres unmarked) [Compound 15] | 1121 mg/kg |  | 
CCCc1nc(NC[C@H](C)O)nc(N2CCOCC2)n1 [Compound 16, (S)-3-[(4-morpholino-6-propyl-1,3,5-triazin-2-yl)amino]-2-propanol] | 844 mg/kg |  | 
CCCc1nc(NC[C@@H](C)O)nc(N2CCOCC2)n1 [Compound 17] | 844 mg/kg |  | 
CCCc1nc(NCC2(O)CCCCC2)nc(N2CCOCC2)n1 [Compound 18] | 1007 mg/kg |  | 
CCCc1nc(N2CCOCC2)nc(N2CCCC2CO)n1 (centres unmarked) [Compound 19] | 1031 mg/kg |  | 
CCCc1nc(NN(C)C)nc(N2CCOCC2)n1 [Compound 20, 2-(2,2-dimethylhydrazino)-4-morpholino-6-propyl-1,3,5-triazine] | 799 mg/kg | 66.7% | 
CCCc1nc(NC(C)=O)nc(N2CCOCC2)n1 [Compound 21a, N-(4-Morpholino-6-propyl-1,3,5-triazin-2-yl)-acetamide] | 996 mg/kg | 100% | 

SMILES | Lethal dose (death of two animals out of three within 48 hours) (Toxicity (Irwin's test); mice, intraperitoneal) | inhibition [1] | Lethal dose (death of two animals out of three within 48 hours) (Toxicity (Irwin's test); mouse, in vivo, ip)
CCCc1nc(NC(=O)c2ccccc2)nc(N2CCOCC2)n1.Cl [Compound 22, N-(4-morpholino-6-propyl-1,3,5-triazin-2-yl)-benzamide hydrochloride] | 1091 mg/kg | 66.7% | 
CCCc1nc(NC(=O)Cc2ccccc2)nc(N2CCOCC2)n1 [Compound 23] | > 1024 mg/kg |  | 
CCCc1nc(NC(=O)C(C)C)nc(N2CCOCC2)n1 [Compound 24] | 880 mg/kg |  | 
CCCc1nc(N2CCOCC2)nc(N(C)C(C)=O)n1 [Compound 25a] |  | 46.7% | 838 mg/kg
CCCc1nc(N2CCOCC2)nc(N(C)C(=O)C(C)C)n1 [Compound 26] |  | 55.6% | 922 mg/kg
CCCc1nc(N2CCOCC2)nc(N(C)C(=O)c2ccccc2)n1.Cl [Compound 27, N-methyl-N-(4-morpholino-6-propyl-1,3,5-triazin-2-yl)-benzamide hydrochloride] | 1133 mg/kg | 93.8% | 
CCCc1nc(NC(=O)Oc2ccccc2)nc(N2CCOCC2)n1 [Compound 28, phenyl (4-morpholino-6-propyl-1,3,5-triazin-2-yl)carbamate] | > 1030 mg/kg |  | 
CCCc1nc(NC(=O)c2ccc(Cl)cc2)nc(N2CCOCC2)n1 [Compound 29] | 398 mg/kg |  | 
CCCc1nc(N2CCOCC2)nc(N(C)C(=O)c2ccc(Cl)cc2)n1 [Compound 30] | 1125 mg/kg |  | 
CCCc1nc(NC(=O)c2ccc(OC)cc2)nc(N2CCOCC2)n1 [Compound 31] | 511 mg/kg |  | 
CCCc1nc(N2CCOCC2)nc(N(C)C(=O)c2ccc(OC)cc2)n1 [Compound 32] | 1222 mg/kg |  | 
CCCc1nc(NC(=O)c2ccc(C)cc2)nc(N2CCOCC2)n1 [Compound 33] | 1132 mg/kg |  | 
CCCc1nc(N2CCOCC2)nc(N(C)C(=O)c2ccc(C)cc2)n1 [Compound 34] | 1174 mg/kg |  | 
CCCc1nc(N2CCOCC2)nc(N(C)C(=O)c2ccc(OC)c(OC)c2)n1 [Compound 35] | 401 mg/kg |  | 
CCCc1nc(NC(=O)c2ccc(C)c(C)c2)nc(N2CCOCC2)n1 [Compound 36] | 1174 mg/kg |  | 
CCCc1nc(NCCOC(C)=O)nc(N2CCOCC2)n1 [Compound 37, 2-[[2-(acetoxy)ethyl]amino]-4-morpholino-6-propyl-1,3,5-triazine] | 928 mg/kg | 53.3% | 
CCCc1nc(NCCOC(=O)C(C)C)nc(N2CCOCC2)n1 [Compound 38] | > 1012 mg/kg |  | 
CCCc1nc(NCCOC(=O)c2ccccc2)nc(N2CCOCC2)n1 [Compound 39] | > 1114 mg/kg |  | 
CCCc1nc(NCCOC(=O)Cc2ccccc2)nc(N2CCOCC2)n1 [Compound 40] | 1157 mg/kg |  | 
CCCc1nc(NC(=O)N(C)C)nc(N2CCOCC2)n1 [Compound 41, N,N-Dimethyl-N'-(4-morpholino-6-propyl-1,3.5-triazin-2-yl)-urea] | 294 mg/kg |  | 
CCCc1nc(NCCOC(N)=O)nc(N2CCOCC2)n1 [Compound 42, 2-[[2-[(Aminocarbonyl)oxy]ethyl]amino]-4-morpholino-6-propyl-1,3,5-triazine] | > 931 mg/kg |  | 
CCCc1nc(N2CCOCC2)nc(N(CCOC(C)=O)C(C)=O)n1 [Compound 43, N-[2-(Acetoxy)ethyl]-N-(4-morpholino-6-propyl-1,3,5-triazin-2-yl)-acetamide] | 351 mg/kg | 77.8% | 
